From patent publication US8993611B2, “Family of polyamine arylethylamide compounds, and their cosmetic or dermocosmetic use” (Exsymol, priority 2012, dated 2015)
Read-outs that look alike come from different tables or passages of the source.

Legend:
[1] = test system: Salmonella typhimurium (TA 100); assay: Test 3: detoxification of the reference glycotoxin methyl-glyoxal (MGO), Ames pre-incubation test; assay type: cell-based
Experimental: […] The resulting mixture was incubated 30 minutes at 37° C. under orbital stirring (122 rpm).
(§1) The counting of colonies was then achieved manually.
In addition to the N-((4-imidazolyl)ethyl)-α, β-diaminopropanamide compound, the following compounds according to the invention were also tested at different concentrations: • N-((4-hydroxyphenyl)ethyl)-α,β-diaminopropanamide • N-((4-imidazolyl)ethyl)-α,γ-diaminobutanamide • N-((3,4-dihydroxyphenyl)ethyl)-α,β-diaminopropanamide • N-((4-imidazolyl)ethyl)-L-lysinamide
The results are gathered in table 3 below, compared to the PBS phosphate buffer (negative control).

[2] = test system: purified histones, enriched with H1 histones; assay: Test 1: protection of histones towards methyl-glyoxal (MGO), fluorimetry of the dialyzed mixture; assay type: biochemical; conditions: for RFU (fluorescence of dialyzed mixture, indicative of histone damage by MGO): compound 10 mM + histones + MGO 10 mM, 24 h at 37° C., excitation 340 nm, emission 470 nm, control histones + MGO 62231; for formation of non-enzymatic glycosylation products from reaction of glycotoxin with histones: result in words
Experimental: A solution of purified histones (5 mg/l), enriched with H1 histones, was incubated in the presence of the reference glycotoxin MGO (10 mM) during 24 h at 37° C. under stirring. In order to follow specifically fluorescence of products from non-enzymatic glycosylation of histones, it was necessary to get rid of MGO fluorescence as well as the one of the glycotoxin-trapper products. For this, the reaction mixture was dialyzed. Then it was introduced in a dialysis tape and three successive 3 hour-baths were run, each one in a NaH2PO4 buffer solution (83.3 mM) in which MGO was diluted. Dialyzed mixture fluorescence which was indicative of the damage of histones made by reaction with MGO (adduct formation) was measured by fluorimetry (λ excitation: 340 nm; λ emission: 470 nm). The measure unit corresponds to RFU (for “Relative Fluorescence Unit”).

[3] = test system: Salmonella typhimurium (TA 100); assay: Test 2: detoxification of glycotoxins released by fructosylated casein, Ames pre-incubation test without metabolic activator; assay type: cell-based; conditions: for Number of revertants: TA 100, PBS control 84
Excerpt: The study was achieved on a Salmonella typhimurium (TA 100) bacterial strain which belongs to reference strains used for the Ames regulatory test (ICH steering committee, Jul. 19, 1995, Guidance on specific aspect of regulatory genotoxicity tests for pharmaceuticals). The objective was to determine, in the mutated strains' colonies, the number of revertant colonies which are representative of mutagenesis in casein-fructose system, with or without a compound according to the invention.
Experimentally, 2.7 g of D-(+)-fructose were solubilized at room temperature in 100 mL of phosphate buffer. After collecting 20 g of the colourless limpid solution (Cfructose=150 mM), 0.600 g of sodium caseinate were introduced until complete dissolution. The solution was then introduced in 2×10mL in screw-top test tubes, then placed in an oil bath at 120° C. during 1 h.
To different concentrations (400 μl) of compound according to the invention were successively added 500 μl of glycated casein and 100 μl of the above-mentioned bacterial suspension. The resulting mixture was incubated 30 minutes at 37° C. under orbital stirring (122 rpm).
as §1
The results are presented in table 2 below, compared to a negative control (PBS phosphate buffer).

[4] = test system: Salmonella typhimurium (TA 100); conditions: positive control; PBS control 88
Experimental: The study was carried out according to an almost-identical manner to the here-above test 2, with however D-glucose replacing D-(+)-fructose and according to following conditions. Experimentally, 18.02 g of D-glucose were solubilized at room temperature in 100 mL of water. 10 mL of the solution corresponding to 10 mM of the compound according to the invention, N-((4-imidazolyl)ethyl)-α,β-diamino-propanamide, were sampled and introduced after a pH adjustment by sodium hydroxide. The resulting reaction mixture was then introduced in a screw-top test tube, then heated at 100° C. for 80 minutes.
In parallel, the TA 100 strain was cultured in the Nutrient Broth Oxoid N° 2 (NBO2) supplemented with Ampicilline. The culture was placed overnight at 37° C. in an orbital shaker (88 rpm) so that bacteria were in growth exponential phase (10^7 to 10^9 bacteria/ml).
100 μl of test solution were added to 100 μl of the above-mentioned bacterial suspension and to 500 μl of PBS phosphate buffer, the resulting mixture being incubated 1 h at 37° C. under orbital stirring (122 rpm). 2 ml of soft-agar supplemented in biotin histidine and maintained at 45° C. were added. After mixing with Vortex, they were deposited in a Petri dish containing Vogel-Bonner hard-agar. After solidification, dishes were transferred in the incubator at 37° C. during 48-72 h. […]

[5] = compound 75 μM + methyl-glyoxal 140 μM, PBS control 91, MGO alone 161
[6] = compound 750 μM + methyl-glyoxal 140 μM, PBS control 91, MGO alone 161

Compound: CC(=O)C=O [Methyl-glyoxal, methyl-glyoxal, reference compound]
- Number of revertants ([1]; methyl-glyoxal alone 140 μM, PBS control 91): 161
- Number of revertants ([1]; methyl-glyoxal alone 280 μM, PBS control 72): 308

Compound: NCC(N)C(=O)NCCc1ccc(O)c(O)c1 (stereo not drawn) [N-((3,4-dihydroxyphenyl)ethyl)-α,β-diaminopropanamide]
- Number of revertants [1, 5]: 161
- Number of revertants [1, 6]: 111

Compound: NCC(N)C(=O)NCCc1ccc(O)cc1 (stereo not drawn) [N-((4-hydroxyphenyl)ethyl)-α,β-diaminopropanamide]
- Number of revertants [1, 5]: 152

Compound: NCCCC[C@H](N)C(=O)NCCc1c[nH]cn1 [N-((4-imidazolyl)ethyl)-L-lysinamide]
- Number of revertants [1, 5]: 141
- Number of revertants [1, 6]: 132

Compound: NCC(N)C(=O)NCCc1c[nH]cn1 (stereo not drawn) [N-((4-imidazolyl)ethyl)-α,β-diaminopropanamide]
- RFU (fluorescence of dialyzed mixture, indicative of histone damage by MGO) [2]: 20441 RFU
- formation of non-enzymatic glycosylation products from reaction of glycotoxin with histones [2]: strongly decrease
- Number of revertants ([1]; compound 75 μM + methyl-glyoxal 280 μM, PBS control 72, MGO alone 308): 141
- Number of revertants ([1]; compound 750 μM + methyl-glyoxal 280 μM, PBS control 72, MGO alone 308): 95
- RFU ([3]; compound 7.5 mM + fructosylated casein, PBS control = 1): 1.42 RFU
- Number of revertants ([3]; compound 7.5 mM + fructosylated casein): 119
- revertant count relative to PBS control ([3]; compound 15 mM + fructosylated casein, PBS control = 1): 1.11 RFU
- Number of revertants ([3]; compound 15 mM + fructosylated casein): 93
- toxicity of the formed glycotoxins ([3]; result in words, dose-effect relationship observed): strongly decrease

Compound: NCCC(N)C(=O)NCCc1c[nH]cn1 (stereo not drawn) [N-((4-imidazolyl)ethyl)-α,γ-diaminobutanamide]
- RFU (fluorescence of dialyzed mixture, indicative of histone damage by MGO) [2]: 21526 RFU
- formation of non-enzymatic glycosylation products from reaction of glycotoxin with histones [2]: strongly decrease
- Number of revertants [1, 5]: 154
- Number of revertants [1, 6]: 116

Compound: [N-]=[N+]=[N-] [NaN3, sodium azide]
- Number of revertants [4]: 211
